Experimental data reported in ChEMBL document CHEMBL1201862, “PubChem BioAssay data set” (2004).
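How tested: cells in 96-well plates exposed to compound for 48 hours at five concentrations. The concentration for 50% growth inhibition is given as GI50.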 The source made the active and inactive calls. No stated cut-off is given here; in the data, active = GI50 up to about 1.1 µM and inactive = higher.

Assays:
Test in all cases: NCI-60 cell line screen, 48 h
[1] = test system: LOX IMVI
[2] = test system: SR
[3] = test system: HCC 2998
[4] = test system: SF-539
[5] = test system: MCF7
[6] = test system: NCI-H460
[7] = test system: U-251
[8] = test system: OVCAR-3
[9] = test system: DU-145
[10] = test system: MDA-MB-435
[11] = test system: HL-60
[12] = test system: ACHN
[13] = test system: RXF 393
[14] = test system: M14
[15] = test system: A498
[16] = test system: NCI-H23
[17] = test system: Malme-3M
[18] = test system: SF-268
[19] = test system: Hs-578T
[20] = test system: SNB-75

| Structure (SMILES) | GI50 [1] | GI50 [2] | GI50 [3] | GI50 [4] | GI50 [5] | GI50 [6] | GI50 [7] | GI50 [8] | GI50 [9] | GI50 [10] | GI50 [11] | GI50 [12] | GI50 [13] | GI50 [14] | GI50 [15] | GI50 [16] | GI50 [17] | GI50 [18] | GI50 [19] | GI50 [20] |
| --- | --- | --- | --- | --- | --- | --- | --- | --- | --- | --- | --- | --- | --- | --- | --- | --- | --- | --- | --- | --- |
| N[C@H]1CCN(c2c(F)cc3c(=O)c(C(=O)O)cn4c3c2Oc2cc3c(ccc5ccccc53)cc2-4)C1 | 3.08 µM (inactive) | 2.52 µM (inactive) | 1.99 µM (inactive) | 1.7 µM (inactive) | 2.63 µM (inactive) | 1.94 µM (inactive) | 1.39 µM (inactive) | 4.48 µM (inactive) | 4.05 µM (inactive) | 3.88 µM (inactive) | 3.79 µM (inactive) | 2.32 µM (inactive) | 6.41 µM (inactive) | 4.68 µM (inactive) | 3.56 µM (inactive) | 4.83 µM (inactive) | 4.43 µM (inactive) |  |  |  |
| CCOC(=O)c1nc2ccccc2nc1Oc1ccc(C(=O)OC)cc1 | > 100 µM (inactive) |  |  | > 100 µM (inactive) | > 100 µM (inactive) | > 100 µM (inactive) | > 100 µM (inactive) | > 100 µM (inactive) | > 100 µM (inactive) | > 100 µM (inactive) |  | > 100 µM (inactive) | > 100 µM (inactive) | > 100 µM (inactive) | > 100 µM (inactive) |  | > 100 µM (inactive) | > 100 µM (inactive) | > 100 µM (inactive) | 29 µM (inactive) |
| Cc1nc2cccc(F)c2c(=O)n1-c1nnc(C2CC2)s1 | > 10 µM (inactive) | > 10 µM (inactive) | > 10 µM (inactive) | > 10 µM (inactive) | > 10 µM (inactive) | > 10 µM (inactive) | > 10 µM (inactive) | > 10 µM (inactive) | > 10 µM (inactive) | > 10 µM (inactive) | > 10 µM (inactive) | > 10 µM (inactive) | > 10 µM (inactive) | > 10 µM (inactive) |  | > 10 µM (inactive) |  | > 10 µM (inactive) | > 10 µM (inactive) | > 10 µM (inactive) |
| COc1cc(/C=C2\N=C(c3ccccc3)N(c3nc4ccc(Sc5ccccc5)cc4[nH]3)C2=O)ccc1O | 25.5 µM (inactive) |  | 15.8 µM (inactive) |  | 17.5 µM (inactive) | 19.5 µM (inactive) | 19.4 µM (inactive) | 30.5 µM (inactive) | 35.7 µM (inactive) | 3.56 µM (inactive) | 11.2 µM (inactive) | 26.9 µM (inactive) | 28.5 µM (inactive) | 15.6 µM (inactive) | 21.3 µM (inactive) | 26.8 µM (inactive) | 18 µM (inactive) | 25.5 µM (inactive) | 32.4 µM (inactive) | 33.6 µM (inactive) |
| Cc1ccc(S(=O)(=O)NC(=O)NC(C(=O)O)C(C)C)cc1 (stereo unspecified) | > 100 µM (inactive) | > 100 µM (inactive) |  | > 100 µM (inactive) | > 100 µM (inactive) | > 100 µM (inactive) | > 100 µM (inactive) |  | > 100 µM (inactive) |  | > 100 µM (inactive) | > 100 µM (inactive) | > 100 µM (inactive) | > 100 µM (inactive) |  | > 100 µM (inactive) | > 100 µM (inactive) | > 100 µM (inactive) | > 100 µM (inactive) | > 100 µM (inactive) |
| CC(=O)OCC1OC(O/C=C(\CN=[N+]=[N-])C(C)=O)C(OC(C)=O)C(OC(C)=O)C1OC(C)=O (stereo unspecified) | 3.47 µM (inactive) | 2.37 µM (inactive) | 19 µM (inactive) |  | 7.62 µM (inactive) | 21.6 µM (inactive) | 12.2 µM (inactive) | 8.59 µM (inactive) |  | 4.57 µM (inactive) | 2.03 µM (inactive) | 3.4 µM (inactive) |  | 8 µM (inactive) | 20.3 µM (inactive) | 9.44 µM (inactive) | 3.05 µM (inactive) | 21.6 µM (inactive) | 52.6 µM (inactive) | 13.5 µM (inactive) |
| NC1=NN(c2ccccc2)C2(c3ccncc3C(=O)O)C1C(N)=NN2c1ccccc1 (stereo unspecified) | > 100 µM (inactive) |  | > 100 µM (inactive) | > 100 µM (inactive) | > 100 µM (inactive) | > 100 µM (inactive) | > 100 µM (inactive) | > 100 µM (inactive) | > 100 µM (inactive) | > 100 µM (inactive) | > 100 µM (inactive) | > 100 µM (inactive) | > 100 µM (inactive) | > 100 µM (inactive) | > 100 µM (inactive) | > 100 µM (inactive) | > 100 µM (inactive) | > 100 µM (inactive) | > 100 µM (inactive) | > 100 µM (inactive) |
| O=C1CCN/C(=N\C(=O)C(F)(F)F)N1CCc1c[nH]c2ccccc12 | > 100 µM (inactive) |  | > 100 µM (inactive) | > 100 µM (inactive) | > 100 µM (inactive) | > 100 µM (inactive) | > 100 µM (inactive) | > 100 µM (inactive) | > 100 µM (inactive) | > 100 µM (inactive) | > 100 µM (inactive) | > 100 µM (inactive) | > 100 µM (inactive) | > 100 µM (inactive) | > 100 µM (inactive) | > 100 µM (inactive) | > 100 µM (inactive) | > 100 µM (inactive) | > 100 µM (inactive) |  |
| O=C(Oc1c(Cl)cc(C2(c3cc(Cl)c(OC(=O)c4ccccc4)c(Cl)c3)CCCCC2)cc1Cl)c1ccccc1 | 14.2 µM (inactive) |  | 10.1 µM (inactive) | 14.3 µM (inactive) | 11.1 µM (inactive) | 6.65 µM (inactive) | 13.8 µM (inactive) | 10.9 µM (inactive) | 12.2 µM (inactive) | 10.1 µM (inactive) | 3.32 µM (inactive) | 5.15 µM (inactive) | 11.5 µM (inactive) | 14.5 µM (inactive) | 11.4 µM (inactive) | 10.4 µM (inactive) |  | 12.6 µM (inactive) | 14.8 µM (inactive) | 11.7 µM (inactive) |
| CC(C)=CC[C@]12CCN[C@H]1N(S(=O)(=O)c1ccccc1)c1ccccc12 | 15.9 µM (inactive) | 18.3 µM (inactive) | 16.7 µM (inactive) | 20.3 µM (inactive) | 18.2 µM (inactive) | 14.5 µM (inactive) | 16 µM (inactive) | 16.9 µM (inactive) | > 100 µM (inactive) | 16.3 µM (inactive) | 17.8 µM (inactive) | 21.1 µM (inactive) | 13.5 µM (inactive) |  |  | > 100 µM (inactive) | 16.3 µM (inactive) | 14.8 µM (inactive) | 20.5 µM (inactive) | 17.1 µM (inactive) |
| CC(=O)OCC1OC(n2c3c(c(-c4cccc5ccccc45)c(C#N)c2=S)CCCC3)C(OC(C)=O)C(OC(C)=O)C1OC(C)=O (stereo unspecified) | > 100 µM (inactive) | > 100 µM (inactive) | > 100 µM (inactive) | > 100 µM (inactive) | > 100 µM (inactive) | > 100 µM (inactive) | > 100 µM (inactive) | > 100 µM (inactive) | > 100 µM (inactive) | > 100 µM (inactive) | > 100 µM (inactive) | > 100 µM (inactive) | > 100 µM (inactive) | 66.7 µM (inactive) | > 100 µM (inactive) | > 100 µM (inactive) | > 100 µM (inactive) | > 100 µM (inactive) |  |  |
| COc1cc(C2c3cc4c(cc3[C@@H](Nc3ccccc3)C3COC[C@H]23)OCO4)cc(OC)c1O (stereo partly specified) |  | 0.465 µM (active) | 5.83 µM (inactive) | 1.26 µM (inactive) | 0.512 µM (active) | 0.148 µM (active) | 0.897 µM (active) |  |  | 7.13 µM (inactive) | 0.573 µM (active) | 0.483 µM (active) |  | 2.59 µM (inactive) |  |  |  | 3.03 µM (inactive) | 0.736 µM (active) | 2.23 µM (inactive) |
| Nn1c(CCCCCCCCc2nnc(COc3ccc4ccccc4c3O)n2N)nnc1COc1ccc2ccccc2c1O |  |  | 25.2 µM (inactive) |  | 27.2 µM (inactive) | 29 µM (inactive) | 41.4 µM (inactive) |  | 33.8 µM (inactive) | 29.9 µM (inactive) |  | 31.3 µM (inactive) | 26.1 µM (inactive) | 30.1 µM (inactive) | 35.8 µM (inactive) | 16 µM (inactive) | 4.48 µM (inactive) | 29.8 µM (inactive) |  | 51.1 µM (inactive) |
| CSC[S+]([O-])C[C@H](CO)NC(=O)/C=C/c1c(C)[nH]c(=O)[nH]c1=O (stereo partly specified) | 1.11 µM (active) | 2.04 µM (inactive) | 1.45 µM (inactive) | 0.741 µM (active) | 1.8 µM (inactive) | 0.48 µM (active) |  | 1.13 µM (inactive) |  |  | 1.2 µM (inactive) | 1.48 µM (inactive) | 0.804 µM (active) | 1.16 µM (inactive) | 0.378 µM (active) | 0.644 µM (active) | 0.492 µM (active) | 0.277 µM (active) |  | 0.236 µM (active) |
| COc1cc2c(cc1OCCCN1C(=O)c3cccc4cccc(c34)C1=O)N=C[C@@H]1CCCN1C2=O | 33.9 µM (inactive) | 1.26 µM (inactive) | > 63.7 µM (inactive) | 83.6 µM (inactive) | 2.47 µM (inactive) | 22.3 µM (inactive) | 39.5 µM (inactive) | 32.8 µM (inactive) | 46.1 µM (inactive) | 40.1 µM (inactive) |  | 25.7 µM (inactive) | 14.9 µM (inactive) | 36.2 µM (inactive) | > 100 µM (inactive) | 34 µM (inactive) | 19.5 µM (inactive) | 39.6 µM (inactive) |  |  |
| O=C(Nc1ncc([N+](=O)[O-])s1)c1ccccc1O [TIZOXANIDE] | 24.6 µM (inactive) |  | 13.6 µM (inactive) | 45 µM (inactive) | 13.7 µM (inactive) | 18 µM (inactive) | 14.9 µM (inactive) | 6.84 µM (inactive) | 21 µM (inactive) | 22.6 µM (inactive) |  | 18.7 µM (inactive) | 3.39 µM (inactive) | 20 µM (inactive) | 8.75 µM (inactive) | 12.5 µM (inactive) | 12.9 µM (inactive) | 13.6 µM (inactive) | 6.58 µM (inactive) | 18.1 µM (inactive) |
